Reference: patent US12441718B2, “Selective angiotensin II compounds” (VICORE PHARMA AB, priority 2021, dated 2025)
Where two headings read alike, the source gives them in different places.

Key:
[1] = biological target: T1, CYP2C9 (Homo sapiens, UniProt P11712); assay: CYP inhibition in human liver microsomes (Eurofins ITEMG232); type: in vitro ADME; parameters: isoform-specific substrates incubated with human liver microsomes; tissue Eurofins ITEMG232 (protocol number); host or cells: human liver microsomes; details: human, probe diclofenac, substrate diclofenac, read-out: CYP2C9 Inh %
T1 sequence (P11712 whole entry, canonical isoform): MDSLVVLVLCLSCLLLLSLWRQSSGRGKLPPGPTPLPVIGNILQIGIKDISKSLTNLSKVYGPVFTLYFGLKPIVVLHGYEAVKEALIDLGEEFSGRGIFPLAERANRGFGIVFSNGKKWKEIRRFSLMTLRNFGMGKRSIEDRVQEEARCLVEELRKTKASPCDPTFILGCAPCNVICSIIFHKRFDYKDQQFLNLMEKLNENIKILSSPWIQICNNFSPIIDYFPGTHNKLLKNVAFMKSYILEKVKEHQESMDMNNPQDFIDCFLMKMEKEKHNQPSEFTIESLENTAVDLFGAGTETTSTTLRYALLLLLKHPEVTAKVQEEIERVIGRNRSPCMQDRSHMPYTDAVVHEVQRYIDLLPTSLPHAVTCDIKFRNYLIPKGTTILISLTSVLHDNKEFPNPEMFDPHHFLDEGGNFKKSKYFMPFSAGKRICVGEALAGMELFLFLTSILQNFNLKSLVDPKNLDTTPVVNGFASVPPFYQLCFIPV

[2] = test system: CYP3A4&5; assay: in vitro; details: human, human liver microsomes, probe testosterone;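 also: Read-out is the metabolite generated from the probe substrate, quantified as HPLC-MS/MS peak area once incubation ends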
[3] = biological target: T2, CYP3A4 (Homo sapiens, UniProt P08684); assay: CYP inhibition in human liver microsomes (Eurofins ITEMG232), midazolam substrate; type: in vitro ADME; parameters: isoform-specific substrates incubated with human liver microsomes; tissue Eurofins ITEMG232 (protocol number); host or cells: human liver microsomes; details: human, probe midazolam, read-out: CYP3A4 midazolam Inh %
T2 sequence (P08684 whole entry, canonical isoform): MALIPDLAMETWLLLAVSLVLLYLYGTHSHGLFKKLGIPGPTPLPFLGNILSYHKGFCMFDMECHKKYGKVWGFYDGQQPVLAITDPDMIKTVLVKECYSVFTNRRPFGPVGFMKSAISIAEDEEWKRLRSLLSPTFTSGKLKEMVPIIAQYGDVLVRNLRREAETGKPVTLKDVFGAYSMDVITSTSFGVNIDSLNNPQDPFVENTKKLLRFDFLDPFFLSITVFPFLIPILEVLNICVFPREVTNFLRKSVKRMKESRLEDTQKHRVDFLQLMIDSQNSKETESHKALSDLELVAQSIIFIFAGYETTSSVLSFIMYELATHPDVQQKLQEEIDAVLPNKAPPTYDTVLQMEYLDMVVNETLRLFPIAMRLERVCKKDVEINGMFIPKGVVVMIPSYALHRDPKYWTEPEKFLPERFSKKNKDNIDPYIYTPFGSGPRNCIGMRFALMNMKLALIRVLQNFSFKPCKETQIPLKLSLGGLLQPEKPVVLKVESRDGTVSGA

[4] = biological target: T3, human recombinant AT1 receptor (Homo sapiens, UniProt P30556); assay: Binding to AT1 receptor, radiometric scintillation assay (Eurofins ITEM24); details: test compounds at 1 and 10 μM, ligand 125I(sar1,Ile8)-AT-II; * rows = mean of runs
T3 construct: purchased Eurofins ITEM24 (protocol number)
T3 sequence (P30556 1-359): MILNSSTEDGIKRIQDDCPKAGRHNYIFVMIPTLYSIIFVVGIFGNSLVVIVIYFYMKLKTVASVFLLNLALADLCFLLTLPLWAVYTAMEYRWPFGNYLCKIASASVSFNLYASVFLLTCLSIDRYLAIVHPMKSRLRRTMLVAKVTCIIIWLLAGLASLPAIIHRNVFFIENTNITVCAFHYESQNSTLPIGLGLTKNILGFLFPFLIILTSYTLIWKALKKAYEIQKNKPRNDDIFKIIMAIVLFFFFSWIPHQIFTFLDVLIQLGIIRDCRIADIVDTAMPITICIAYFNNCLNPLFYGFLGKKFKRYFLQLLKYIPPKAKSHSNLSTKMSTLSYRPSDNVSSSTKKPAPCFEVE

[5] = biological target: T4, human recombinant AT2 receptor (Homo sapiens, UniProt P50052); assay: Binding to AT2 receptor, radiometric scintillation assay (Eurofins ITEM26); details: ligand 125I CGP 42112A, * rows = mean of runs; for Ki: seven-point dose-response curve; for IC50: test compounds at 1, 10, 100 and 1000 nM, read-out: AT2 GraFit IC50
T4 construct: purchased Eurofins ITEM26 (protocol number)
T4 sequence (P50052 1-363): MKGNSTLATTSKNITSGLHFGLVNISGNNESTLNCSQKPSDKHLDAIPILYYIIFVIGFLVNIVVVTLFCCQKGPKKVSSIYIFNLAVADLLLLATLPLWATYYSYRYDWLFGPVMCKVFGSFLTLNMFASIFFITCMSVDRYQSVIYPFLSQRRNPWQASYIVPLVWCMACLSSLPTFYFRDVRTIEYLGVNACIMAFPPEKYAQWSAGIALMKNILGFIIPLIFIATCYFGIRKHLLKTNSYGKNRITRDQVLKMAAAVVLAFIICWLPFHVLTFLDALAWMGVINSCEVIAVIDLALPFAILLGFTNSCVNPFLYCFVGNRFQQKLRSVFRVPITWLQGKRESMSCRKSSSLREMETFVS

[6] = biological target: T5, CYP2B6 (Homo sapiens, UniProt P20813); assay: CYP inhibition in human liver microsomes (Eurofins ITEMG232); type: in vitro ADME; details: probe bupropion, substrate bupropion, read-out: CYP2B6 Inh %
T5 construct: isoform-specific substrates incubated with human liver microsomes; tissue Eurofins ITEMG232 (protocol number); host or cells: human liver microsomes
T5 sequence (P20813 1-491): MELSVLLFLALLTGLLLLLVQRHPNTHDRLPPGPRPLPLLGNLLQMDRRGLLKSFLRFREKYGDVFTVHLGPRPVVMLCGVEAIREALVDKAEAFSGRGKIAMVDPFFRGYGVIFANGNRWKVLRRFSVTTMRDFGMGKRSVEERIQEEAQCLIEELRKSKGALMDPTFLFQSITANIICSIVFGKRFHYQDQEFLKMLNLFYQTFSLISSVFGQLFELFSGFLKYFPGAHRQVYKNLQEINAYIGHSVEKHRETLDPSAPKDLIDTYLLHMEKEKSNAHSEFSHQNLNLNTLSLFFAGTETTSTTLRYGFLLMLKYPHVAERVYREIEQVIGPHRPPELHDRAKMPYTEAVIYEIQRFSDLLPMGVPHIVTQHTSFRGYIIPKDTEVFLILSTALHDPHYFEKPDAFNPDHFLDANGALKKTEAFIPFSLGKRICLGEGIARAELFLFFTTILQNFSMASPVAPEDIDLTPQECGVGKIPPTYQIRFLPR

[7] = biological target: T6, CYP2C19 (Homo sapiens, UniProt P33261); assay: as above; type: in vitro ADME; details: human, probe omeprazole, substrate omeprazole, read-out: CYP2C19 Inh %
T6 construct: isoform-specific substrates incubated with human liver microsomes; tissue Eurofins ITEMG232 (protocol number); host or cells: human liver microsomes
T6 sequence (P33261 whole entry, canonical isoform): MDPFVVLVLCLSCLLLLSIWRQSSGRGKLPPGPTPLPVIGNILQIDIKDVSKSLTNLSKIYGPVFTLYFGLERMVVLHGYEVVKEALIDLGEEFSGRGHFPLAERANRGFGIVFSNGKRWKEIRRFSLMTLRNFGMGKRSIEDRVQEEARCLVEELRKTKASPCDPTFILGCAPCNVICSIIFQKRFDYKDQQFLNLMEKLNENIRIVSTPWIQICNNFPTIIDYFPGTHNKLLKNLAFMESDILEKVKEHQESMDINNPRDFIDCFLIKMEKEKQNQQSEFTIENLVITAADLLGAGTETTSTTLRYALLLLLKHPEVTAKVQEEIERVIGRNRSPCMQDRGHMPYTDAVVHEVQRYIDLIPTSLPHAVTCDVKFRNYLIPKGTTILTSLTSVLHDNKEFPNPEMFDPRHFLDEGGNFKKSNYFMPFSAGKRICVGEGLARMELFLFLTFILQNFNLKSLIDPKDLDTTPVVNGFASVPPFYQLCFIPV

[8] = biological target: T7, CYP2C8 (Homo sapiens, UniProt P10632); assay: as above; type: in vitro ADME; details: human, probe paclitaxel and amodiaquine, substrate paclitaxel and amodiaquine, read-out: CYP2C8 Inh %
T7 construct: isoform-specific substrates incubated with human liver microsomes; tissue Eurofins ITEMG232 (protocol number); host or cells: human liver microsomes
T7 sequence (P10632 1-490): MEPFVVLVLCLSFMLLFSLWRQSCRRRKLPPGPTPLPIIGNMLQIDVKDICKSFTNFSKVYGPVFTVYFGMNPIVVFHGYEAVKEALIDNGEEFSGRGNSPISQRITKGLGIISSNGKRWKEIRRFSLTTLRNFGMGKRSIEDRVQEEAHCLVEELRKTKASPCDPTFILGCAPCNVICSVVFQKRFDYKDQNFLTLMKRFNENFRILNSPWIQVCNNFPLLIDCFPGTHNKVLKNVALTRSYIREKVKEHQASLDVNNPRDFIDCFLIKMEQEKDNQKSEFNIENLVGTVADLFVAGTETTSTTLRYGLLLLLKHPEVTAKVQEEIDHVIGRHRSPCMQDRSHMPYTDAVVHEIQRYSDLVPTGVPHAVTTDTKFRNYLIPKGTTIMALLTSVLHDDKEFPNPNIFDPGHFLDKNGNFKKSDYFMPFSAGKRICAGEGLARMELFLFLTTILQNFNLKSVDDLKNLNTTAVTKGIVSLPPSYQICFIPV

[9] = Metabolic stability in pooled human liver microsomes; type: in vitro ADME; details: human, pooled human liver microsomes, pooled human liver microsomes 0.5 mg/mL, 1 μM test compound, 37° C., * rows = mean of two runs
Procedure, shortened: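 Pooled human liver microsomes (0.5 mg/mL in PBS) preincubated ±1 mM NADPH at 37° C; test compound added at 10 min to 1 μM final. Samples at 0, 5, 15 and 60 min quenched in acetonitrile, parent quantified by LC-MS/MS against a standard curve (terfenadine internal standard). Initial metabolic rate calculated with and without NADPH.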

[10] = biological target: T8, CYP2D6 (Homo sapiens, UniProt P10635); assay: CYP inhibition in human liver microsomes (Eurofins ITEMG232); type: in vitro ADME; details: probe dextromethorphan, substrate dextromethorphan, read-out: CYP2D6 Inh %
T8 construct: isoform-specific substrates incubated with human liver microsomes; tissue Eurofins ITEMG232 (protocol number); host or cells: human liver microsomes
T8 sequence (P10635 whole entry, canonical isoform): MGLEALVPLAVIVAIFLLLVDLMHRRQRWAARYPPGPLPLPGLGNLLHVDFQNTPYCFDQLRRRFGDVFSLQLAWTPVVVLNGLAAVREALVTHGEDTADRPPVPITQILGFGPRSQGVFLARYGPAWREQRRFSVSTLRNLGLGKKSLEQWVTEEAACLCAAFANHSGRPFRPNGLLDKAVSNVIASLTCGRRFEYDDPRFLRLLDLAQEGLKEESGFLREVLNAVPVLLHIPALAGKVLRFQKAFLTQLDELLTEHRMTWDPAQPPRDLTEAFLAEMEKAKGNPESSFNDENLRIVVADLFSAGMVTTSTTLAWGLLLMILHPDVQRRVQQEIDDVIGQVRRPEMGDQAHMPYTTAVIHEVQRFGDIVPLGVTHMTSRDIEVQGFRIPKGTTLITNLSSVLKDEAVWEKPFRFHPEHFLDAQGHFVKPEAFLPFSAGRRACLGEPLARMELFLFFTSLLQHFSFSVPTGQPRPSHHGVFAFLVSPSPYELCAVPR

[11] = biological target: T9, CYP1A2 (Homo sapiens, UniProt P05177); assay: in vitro; type: in vitro ADME; details: human, microsomes, human liver microsomes, substrate phenacetin, read-out: CYP1A2 Inh %
T9 construct: isoform-specific substrates incubated with human liver microsomes; tissue Eurofins ITEMG232 (protocol number); host or cells: human liver microsomes
T9 sequence (P05177 whole entry, canonical isoform): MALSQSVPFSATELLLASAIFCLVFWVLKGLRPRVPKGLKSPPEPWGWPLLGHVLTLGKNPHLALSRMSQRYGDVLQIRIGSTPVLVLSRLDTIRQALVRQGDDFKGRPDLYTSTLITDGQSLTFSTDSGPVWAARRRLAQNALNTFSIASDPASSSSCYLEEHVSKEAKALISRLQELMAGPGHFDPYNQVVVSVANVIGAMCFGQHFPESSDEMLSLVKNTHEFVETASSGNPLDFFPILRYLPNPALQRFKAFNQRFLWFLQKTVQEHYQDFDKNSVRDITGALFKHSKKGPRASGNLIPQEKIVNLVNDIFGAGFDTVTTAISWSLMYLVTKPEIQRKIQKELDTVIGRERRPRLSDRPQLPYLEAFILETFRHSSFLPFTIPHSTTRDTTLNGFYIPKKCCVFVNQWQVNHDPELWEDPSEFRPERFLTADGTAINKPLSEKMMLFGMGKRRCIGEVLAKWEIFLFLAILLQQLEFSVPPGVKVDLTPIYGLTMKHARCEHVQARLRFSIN
Protocol: The following substrates were used; CYP1A phenacetin, CYP2B36 bupropion, CYP2C8 paclitaxel and amodiaquine, CYP2C9 diclofenac, CYP2C19 omeprazole, CYP2D6 dextromethorphan, CYP3A midazolam and testosterone.
At the end of the incubation, the formation of metabolite was monitored by HPLC-MS/MS as the peak area response.

[12] = Metabolic hydrolysis of C21 found during development; type: in vitro ADME; details: statement in background
[13] = biological target: T1, CYP2C9; assay: CYP inhibition of C21 found during development; type: in vitro ADME; details: statement in background
[14] = biological target: T2, CYP3A4; assay: CYP inhibition of C21 found during development; type: in vitro ADME; details: statement in background
[15] = with 1 mM NADPH, read-out: T1/2, + NaDPH
[16] = without NADPH, read-out: T1/2, no NaDPH

## COc1ncncc1NS(=O)(=O)c1ccc(CC(C)C)cc1-c1ccc(Cn2ccnc2C(C)(C)C)c(F)c1 [Example 22, 4′-((2-(tert-Butyl)-1H-imidazol-1-yl)methyl)-3′-fluoro-5-isobutyl-N-(4-methoxy-pyrimidin-5-yl)-[1,1′-biphenyl]-2-sulfonamide]
[1]
  inhibition at 10 µM: 94.7%
[2]
  inhibition at 10 µM: 97%
[3]
  inhibition at 10 µM: 98.2%
[4]
  IC50: 58700 nM
[5]
  Ki: 71 nM
  IC50: 142 nM
[6]
  inhibition at 10 µM: 20.5%
[7]
  inhibition at 10 µM: 85.7%
[8]
  inhibition at 10 µM: 58.1%
[9]; [15]
  half-life at 1 μM: 8 min
[9]; [16]
  half-life at 1 μM: > 60 min
[10]
  inhibition at 10 µM: 4%
[11]
  inhibition at 10 µM: -1.1%

## Cc1nc(NS(=O)(=O)c2ccc(CC(C)C)cc2-c2ccc(Cn3ccnc3C(C)(C)C)c(F)c2)oc1C [Example 24, 4′-((2-(tert-Butyl)-1H-imidazol-1-yl)methyl)-N-(4,5-dimethyloxazol-2-yl)-3′-fluoro-5-isobutyl-[1,1′-biphenyl]-2-sulfonamide]
[1]
  inhibition at 10 µM: 52.7%
[2]
  inhibition at 10 µM: 47.5%
[3]
  inhibition at 10 µM: 36%
[4]
  IC50: 1100 nM
[5]
  Ki: 0.72 nM
  IC50: 1.45 nM
[6]
  inhibition at 10 µM: 26.9%
[7]
  inhibition at 10 µM: 57%
[8]
  inhibition at 10 µM: 59.6%
[9]; [15]
  half-life at 1 μM: 33 min
[9]; [16]
  half-life at 1 μM: > 60 min
[10]
  inhibition at 10 µM: 1.1%
[11]
  inhibition at 10 µM: -19.4%

## CC(C)Cc1ccc(S(=O)(=O)Nc2ncccn2)c(-c2ccc(Cn3ccnc3)c(F)c2)c1 [Example 30, 4′-((1H-Imidazol-1-yl)methyl)-3′-fluoro-5-isobutyl-N-(pyrimidin-2-yl)-[1,1′-biphenyl]-2-sulfonamide]
[1]
  inhibition at 10 µM: 98%
[2]
  inhibition at 10 µM: 92.2%
[3]
  inhibition at 10 µM: 94%
[4]
  IC50: 125 nM
[5]
  Ki: 0.5 nM
  IC50: 1.01 nM
[6]
  inhibition at 10 µM: 38.4%
[7]
  inhibition at 10 µM: 95.7%
[8]
  inhibition at 10 µM: 62.4%
[9]; [15]
  half-life at 1 μM: 60 min
[9]; [16]
  half-life at 1 μM: > 60 min
[10]
  inhibition at 10 µM: 50.9%
[11]
  inhibition at 10 µM: 60.2%

## CCCCOC(=O)NS(=O)(=O)c1sc(CC(C)C)cc1-c1ccc(Cn2ccnc2)cc1 [Example C21, N-butyloxycarbonyl-3-(4-imidazol-1-ylmethylphenyl)-5-isobutylthiophene-2-sulfon-amide]
[2]
  inhibition at 10 µM: 94%
[12]
  metabolic hydrolysis: rapidly hydrolysed to an inactive sulfonamide metabolite
[9]; [16]
  half-life at 1 μM: 30 min
[13]
  inhibition of CYP 2C9: potent inhibitor
[14]
  inhibition of CYP 3A4: potent inhibitor
